Reference: patent US7160887B1, “Aromatic amine derivatives, their production and use” (Takeda Pharmaceutical Company Limited, priority 1998, dated 2007)
Structures can show the parent of a compound that is named as a salt.

melting point: 123 to 125 °C
Structure (SMILES): NCCc1cccc(Oc2cc(Cl)ccc2N(Cc2ccc(-c3ccccc3)cc2)C(=O)CCC(=O)NCc2ccccc2F)c1 (as salt: hydrochloride) [Example 14, N-[2-[3-(2-aminoethyl)phenoxy]-4-chlorophenyl]-N-(4-biphenylmethyl)-N′-(2-fluorobenzyl)succinamide hydrochloride]
